Target: T1, IRAK3 (Homo sapiens, UniProt Q9Y616)
T1 construct: IRAK Endogenous HTRF Degradation Assay; endogenous in cells
T1 sequence (Q9Y616 1-596): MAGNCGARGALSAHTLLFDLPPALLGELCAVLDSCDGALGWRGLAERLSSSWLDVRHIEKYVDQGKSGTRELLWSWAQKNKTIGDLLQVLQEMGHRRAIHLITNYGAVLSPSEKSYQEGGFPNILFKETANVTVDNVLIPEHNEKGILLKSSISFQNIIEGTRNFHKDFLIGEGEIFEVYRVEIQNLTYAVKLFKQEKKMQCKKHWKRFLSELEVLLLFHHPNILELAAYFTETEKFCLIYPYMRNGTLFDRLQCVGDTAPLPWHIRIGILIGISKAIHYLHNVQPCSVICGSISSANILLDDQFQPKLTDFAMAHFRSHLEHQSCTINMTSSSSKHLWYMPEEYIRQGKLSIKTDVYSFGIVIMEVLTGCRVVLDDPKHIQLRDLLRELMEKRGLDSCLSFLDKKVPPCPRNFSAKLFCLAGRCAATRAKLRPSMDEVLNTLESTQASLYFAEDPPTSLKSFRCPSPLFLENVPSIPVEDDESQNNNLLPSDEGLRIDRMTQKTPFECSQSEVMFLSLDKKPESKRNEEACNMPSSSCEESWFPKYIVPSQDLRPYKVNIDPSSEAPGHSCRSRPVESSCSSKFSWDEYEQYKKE
Assay: IRAK endogenous HTRF degradation assay (Total-IRAK3 HTRF kit)
Type: cell-based
Conditions: overnight incubation, lowest percentage of protein remaining
Outline: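 Cells (~50 k) incubated overnight with 3-fold serial dilutions of compound, then lysed; total IRAK3 read by HTRF (665/615 nm ratio ×10,000), normalized to DMSO as 100%. EC50 from four-parameter logistic fit; Dmax = 100 − Ymin (lowest % protein remaining); DC50 = concentration giving 50% degradation.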

Row | Structure (SMILES) | IRAK3 HTRF degradation Ymin [%]
1 | Cc1cc(-c2ccc(Nc3cnn(C4CCN(CCN5CCN(c6ccc(C7CCC(=O)NC7=O)cc6)CC5)CC4)c3)c3nccn23)c(F)cc1F (centres unmarked) [Compound 12, 3-(4-(4-(2-(4-(4-((5-(2,4-difluoro-5-methylphenyl)imdazo [1,2-a]pyridin-8-yl)amino)-1H-pyrazol-1-yl)piperidin-1-yl)ethyl)piperazin-1-yl)phenyl) piperidine-2,6-dione] | 13
2 | Cc1cc(-c2cnc(Nc3cnn(C4CCN(CCN5CCN(c6ccc(C7CCC(=O)NC7=O)cc6)CC5)CC4)c3)c3nccn23)ccc1F (centres unmarked) [Compound 33, 3-(4-(4-(2-(4-(4-((5-(4-fluoro-3-methylphenyl)imdazo [1,2-a]pyrazin-8-yl)amino)-1H-pyrazol-1-yl)piperidin-1-yl)ethyl)piperazin-1-yl)phenyl) piperidine-2,6-dione] | 13
3 | Cc1cc(-c2cnc(Nc3cnn([C@H]4CC[C@H](CCN5CCN(c6ccc(C7CCC(=O)NC7=O)cc6)CC5)CC4)c3)c3nccn23)c(F)cc1F (stereo partly drawn) [Compound 11, 3-(4-(4-(2-((trans)-4-(4-((5-(2,4-difluoro-5-methylphenyl)imidazo[1,2-a]pyrazin-8-yl)amino)-1H-pyrazol-1-yl)cyclohexyl)ethyl)piperazin-1-yl)phenyl)piperidine-2,6-dione] | 12
4 | Cc1cc(-c2cnc(Nc3cnn([C@H]4CC[C@H](CCN5CCN(c6ccc([C@]7(C)CCC(=O)NC7=O)cc6)CC5)CC4)c3)c3nccn23)c(F)cc1F [Compound 82, (S)-3-(4-(4-(2-((trans)-4-(4-((5-(2,4-difluoro-5-methylphenyl)imidazo[1,2-a]pyrazin-8-yl)amino)-1H-pyrazol-1-yl)cyclohexyl)ethyl)piperazin-1-yl)phenyl)-3-methylpiperidine-2,6-dione] | 40
5 | O=C1CCC(c2ccc(N3CCN(CCN4CCC(n5cc(Nc6ncc(-c7cccc(F)c7)n7ccnc67)cn5)CC4)CC3)cc2)C(=O)N1 (centres unmarked) [Compound 80, 3-(4-(4-(2-(4-(4-((5-(3-fluorophenyl)imidazo [1,2-a]pyrazin-8-yl)amino)-1H-pyrazol-1-yl)piperidin-1-yl)ethyl)piperazin-1-yl)phenyl) piperidine-2,6-dione] | 11
6 | Cc1cccc(-c2cnc(Nc3cnn(C4CCN(CCN5CCN(c6ccc7c(c6)C(=O)N(C6CCC(=O)NC6=O)C7=O)CC5)CC4)c3)c3nccn23)c1 (centres unmarked) [Compound 2, 2-(2,6-dioxopiperidin-3-yl)-5-(4-(2-(4-(4-((5-(m-tolyl)imidazo[1,2-a]pyrazin-8-yl)amino)-1H-pyrazol-1-yl)piperidin-1-yl)ethyl)piperazin-1-yl)isoindoline-1,3-dione] | 18
7 | Cc1cc(-c2cnc(Nc3cnn(C4CCN(CCN5CCN(c6cccc(C7CCC(=O)NC7=O)c6)CC5)CC4)c3)c3nccn23)c(F)cc1F (centres unmarked) [Compound 31, 3-(3-(4-(2-(4-(4-((5-(2,4-difluoro-5-methylphenyl)imdazo [1,2-a]pyrazin-8-yl)amino)-1H-pyrazol-1-yl)piperidin-1-yl)ethyl)piperazin-1-yl)phenyl) piperidine-2,6-dione] | 40
8 | Cc1cccc(-c2cnc(Nc3cnn(C4CCN(CC(=O)N5CCN(c6ccc7c(c6)C(=O)N(C6CCC(=O)NC6=O)C7)CC5)CC4)c3)c3nccn23)c1 (centres unmarked) [Compound 16, 3-(1-oxo-6-(4-(2-(4-(4-((5-(m-tolyl)imidazo[1,2-a]pyrazin-8-yl)amino)-1H-pyrazol-1-yl)piperidin-1-yl)acetyl)piperazin-1-yl)isoindolin-2-yl)piperidine-2,6-dione] | 45
9 | Cc1cc(-c2cnc(Nc3cnn(C4CCN(CCN5CCN(c6ccc(C7CCC(=O)NC7=O)cc6)C[C@@H]5C)CC4)c3)c3nccn23)c(F)cc1F (stereo partly drawn) [Compound 7, 3-(4-((S)-4-(2-(4-(4-((5-(2,4-difluoro-5-methylphenyl)imdazo [1,2-a]pyrazin-8-yl)amino)-1H-pyrazol-1-yl)piperidin-1-yl)ethyl)-3-methylpiperazin-1-yl)phenyl) piperidine-2,6-dione] | 12
10 | Cc1cc(-c2cnc(Nc3cnn([C@H]4CC[C@H](CCN5CCN(c6ccc([C@@]7(C)CCC(=O)NC7=O)cc6)CC5)CC4)c3)c3nccn23)c(F)cc1F [Compound 81, (R)-3-(4-(4-(2-((trans)-4-(4-((5-(2,4-difluoro-5-methylphenyl)imidazo[1,2-a]pyrazin-8-yl)amino)-1H-pyrazol-1-yl)cyclohexyl)ethyl)piperazin-1-yl)phenyl)-3-methylpiperidine-2,6-dione] | 7.8
11 | Cc1cc(-c2cnc(Nc3cnn(C4CCN(CC(=O)N5CCN(c6ccc7c(c6)C(=O)N(C6CCC(=O)NC6=O)C7=O)CC5)CC4)c3)c3nccn23)c(F)cc1F (centres unmarked) [Compound 6, 5-(4-(2-(4-(4-((5-(2,4-difluoro-5-methylphenyl)imidazo[1,2-a]pyrazin-8-yl)amino)-1H-pyrazol-1-yl)piperidin-1-yl)acetyl)piperazin-1-yl)-2-(2,6-dioxopiperidin-3-yl)isoindoline-1,3-dione] | 23
12 | Cc1cc(-c2cnc(Nc3cnn(C4CCN(CCN5[C@H](C)CN(c6ccc(C7CCC(=O)NC7=O)cc6)C[C@@H]5C)CC4)c3)c3nccn23)c(F)cc1F (stereo partly drawn) [Compound 13, 3-(4-((3S,5R)-4-(2-(4-(4-((5-(2,4-difluoro-5-methylphenyl)imdazo [1,2-a]pyrazin-8-yl)amino)-1H-pyrazol-1-yl)piperidin-1-yl)ethyl)-3,5-dimethylpiperazin-1-yl)phenyl) piperidine-2,6-dione] | 11
13 | Cc1cc(-c2cnc(Nc3cnn([C@H]4CCN(CCN5CCN(c6ccc(C7CCC(=O)NC7=O)cc6)CC5)C[C@@H]4F)c3)c3nccn23)c(F)cc1F (stereo partly drawn) [Compound 72, 3-(4-(4-(2-((3S,4S)-4-(4-((5-(2,4-difluoro-5-methylphenyl)imdazo [1,2-a]pyrazin-8-yl)amino)-1H-pyrazol-1-yl)-3-fluoropiperidin-1-yl)ethyl)piperazin-1-yl)phenyl) piperidine-2,6-dione] | 8.3
14 | Cc1cccc(-c2cnc(Nc3cnn(C4CCN(CCCN5CCN(c6ccc(C7CCC(=O)NC7=O)cc6)CC5)CC4)c3)c3nccn23)c1 (centres unmarked) [Compound 4, 3-(4-(4-(3-(4-(4-((5-(m-tolyl)imidazo[1,2-a]pyrazin-8-yl)amino)-1H-pyrazol-1-yl)piperidin-1-yl)propyl)piperazin-1-yl)phenyl) piperidine-2,6-dione] | 17
15 | O=C1CCC(c2ccc(N3CCN(CCN4CCC(n5cc(Nc6ncc(-c7ccc(F)cc7)n7ccnc67)cn5)CC4)CC3)cc2)C(=O)N1 (centres unmarked) [Compound 74, 3-(4-(4-(2-(4-(4-((5-(4-fluorophenyl)imidazo [1,2-a]pyrazin-8-yl)amino)-1H-pyrazol-1-yl)piperidin-1-yl)ethyl)piperazin-1-yl)phenyl) piperidine-2,6-dione] | 9.8
16 | Cc1cc(-c2cnc(Nc3cnn(C4CCN(CC(=O)N5CCN(c6ccc7c(c6)C(=O)N(C6CCC(=O)NC6=O)C7)CC5)CC4)c3)c3nccn23)c(F)cc1F (centres unmarked) [Compound 18, 3-(6-(4-(2-(4-(4-((5-(2,4-difluoro-5-methylphenyl)imidazo[1,2-a]pyrazin-8-yl)amino)-1H-pyrazol-1-yl)piperidin-1-yl)acetyl)piperazin-1-yl)-1-oxoisoindolin-2-yl)piperidine-2,6-dione] | 20
17 | Cc1cc(-c2cnc(Nc3cnn([C@H]4CC[C@@H](CCN5CCN(c6ccc(C7CCC(=O)NC7=O)cc6)CC5)CC4)c3)c3nccn23)c(F)cc1F (stereo partly drawn) [Compound 14, 3-(4-(4-(2-((cis)-4-(4-((5-(2,4-difluoro-5-methylphenyl)imidazo[1,2-a]pyrazin-8-yl)amino)-1H-pyrazol-1-yl)cyclohexyl)ethyl)piperazin-1-yl)phenyl) piperidine-2,6-dione] | 13
18 | Cc1cccc(-c2cnc(Nc3cnn(C4CCN(CCCCN5CCN(c6ccc(C7CCC(=O)NC7=O)cc6)CC5)CC4)c3)c3nccn23)c1 (centres unmarked) [Compound 3, 3-(4-(4-(4-(4-(4-((5-(m-tolyl)imidazo[1,2-a]pyrazin-8-yl)amino)-1H-pyrazol-1-yl)piperidin-1-yl)butyl)piperazin-1-yl)phenyl) piperidine-2,6-dione] | 11
19 | Cc1cc(-c2cnc(Nc3cnn(C4CCN(CC(=O)N5CCN(c6ccc7c(c6)CN(C6CCC(=O)NC6=O)C7=O)CC5)CC4)c3)c3nccn23)c(F)cc1F (centres unmarked) [Compound 10, 3-(5-(4-(2-(4-(4-((5-(2,4-difluoro-5-methylphenyl)imidazo[1,2-a]pyrazin-8-yl)amino)-1H-pyrazol-1-yl)piperidin-1-yl)acetyl)piperazin-1-yl)-1-oxoisoindolin-2-yl)piperidine-2,6-dione] | 14
20 | Cc1cccc(-c2cnc(Nc3cnn(C4CCN(CC(=O)N5CCN(c6ccc7c(c6)C(=O)N(C6CCC(=O)NC6=O)C7=O)CC5)CC4)c3)c3nccn23)c1 (centres unmarked) [Compound 1, 2-(2,6-dioxopiperidin-3-yl)-5-(4-(2-(4-(4-((5-(m-tolyl)imidazo[1,2-a]pyrazin-8-yl)amino)-1H-pyrazol-1-yl)piperidin-1-yl)acetyl)piperazin-1-yl)isoindoline-1,3-dione] | 27
